# Results published in patent publication US7129366B2, “Group of a novel anti-cancer compounds with specific structure” (Yang's Biochem Co. Ltd., priority 2001, dated 2006).
# Where two headings read alike, the source gives them in different places. Marks after values point to notes of the source that are not given here.
# Legend:
# UVB-induced skin cancer = test: Prevention of ultraviolet B ray (UVB)-induced skin cancer, DMBA-initiated; format: in vivo, SKH-1 hairless mice; conditions: topical 200 μl of 10% Sample solution once a day, UVB 180 mJ/cm^2 per day, end of 30 weeks
# Description: N-(12-methyl-tridecyl)hydrazine hydrochloride (Sample) was resolved with 0.8% Tween resulting in a final concentration of 10%.
# Forty female SKH-1 hairless mice were randomly divided into control and test groups of 20 each. Each mouse in both groups was treated topically once with DMBA (5.12 μg dissolved in 200 μl acetone solution) to achieve tumor initiation. One week later (day 8), animals in test group started to receive topical application of 200 μl. Sample solution once a day. The control group received 200 μl Tween 80 solvent instead every day. Thirty minutes after the application, animals in both groups were exposed to UVB (290–320 nm) radiation at the dosage of 180 mJ/cm^2 per day to induce growth of tumor. The animals were evaluated for tumor development at the end of 30 weeks.
# [1] = test system: reticuloendothelial system; test: Phagocytic function of reticuloendothelial system, serum clearance index of carbon grain; format: in vivo, ICR strain mice
# Description: One group was given N.S. at 20 ml/kg i.g. as a normal control. A positive control group was given CTX i.g. at 25 mg/kg on day 1 and 6.
# serum hemolysinogenesis = format: in vivo, ICR strain mice
# Description: The method of administration in each group was the same as above (phagocytic function). However, on the 6th day after administration, 0.2 ml 3:5 (V/V) sheep red blood cell (RBC) suspension was injected i.p. into each mouse. 4 days later (day 10), blood was drawn from all animals and serum was prepared and then diluted 600 times. 1 ml diluted serum was mixed with 0.5 ml 10% sheep RBC suspension. N.S. was used as blank control. All samples were incubated at 37° C. for 30 minutes, and centrifuged (2000 rev/min) for 5 minutes. The supernatant was collected for measurement of OD540 and HC50 was calculated.
# [2] = test system: immune organs (thymus and pancreas); test: Weights of immune organs (organ indices); format: in vivo, ICR strain mice
# Excerpt: The mice were sacrificed after the Serum hemolysinogenesis test above and the thymus and pancreas were collected and weighed.
# mouse sarcoma S180 = test: Mouse sarcoma S180 model, inhibition of tumor growth
# Description: 50 female ICR strain mice, weighing 19–22 g, were randomly divided into 5 groups of 10 each. S180 sarcoma mass (about 2 mm^3 each) was transplanted subcutaneously into the right armpits of all animals following standard procedure. 3 test groups were given N-(12-methyl-tridecyl)hydrazine hydrochloride (Sample) at 0.1, 0.2, and 0.4 g/kg intragastrically (i.g.) daily for 11 days. The positive control group was given a single dose of cytoxan (CTX) i.g. (25 mg/kg) on day 1. The negative control group was given 0.8% Tween 80 at 0.4 ml/10 g daily for 11 days. On the 12th day, all mice were sacrificed and the tumor was isolated and weighed. The rate of inhibition of tumor growth was calculated and subject to t-test.
# [3] = test system: oral adnoma and tongue cancer; test: Topical application to patients of oral adnoma and tongue cancer; format: in vivo, human; conditions: oil state applied directly on focus surface, about one week later
# Excerpt: 12-Methyl-2-tetradecenoic acid in an oil state was directly applied on the focus surface of oral or tongue to patients of oral adnoma and tongue cancer.
# [4] = test system: body skin ulcerous wounds (inflammation); test: Topical application to patients with body skin ulcerous wounds; format: in vivo, human; conditions: oil state applied directly on inflamed surface
# Excerpt: 12-Methyl-2-tetradecenoic acid in an oil state was directly applied on the inflamed surface of patients with body skin ulcerous wounds.
# [5] = Sample 0.1 g/kg i.g. + CTX 25 mg/kg
# [6] = Sample 0.4 g/kg i.g. + CTX 25 mg/kg
# [7] = normal mice, Sample 0.4 g/kg i.g.
smiles,measurement,setting,value
"CC(C)CCCCCCCCCCCNN.Cl [Compound 45, N-(12-methyl-tridecyl)hydrazine hydrochloride]",average size of cancer smaller than control,UVB-induced skin cancer,85%
same,reduction in tumor incidence compared to control group,UVB-induced skin cancer,45%
same,effect on the clearance of Carbon grain,"[1]; CTX-treated mouse, Sample 100 and 400 mg/kg",improve the clearance of Carbon grain in CTX-treated mouse to a certain extent
same,"K (X ± SD), serum clearance index of carbon grain",[1]; Sample 100 mg/kg i.g. daily for 9 days + CTX 25 mg/kg on day 1 and 6,0.0433 ± 0.0401
same,"K (X ± SD), serum clearance index of carbon grain",[1]; Sample 400 mg/kg i.g. daily for 9 days + CTX 25 mg/kg on day 1 and 6,0.0603 ± 0.0371
same,effect on the Clearance Index of Carbon grain,"[1]; normal mouse (P1,3>0.05)",no obvious effect
same,"K (X ± SD), serum clearance index of carbon grain","[1]; normal mouse, Sample 400 mg/kg i.g. daily for 9 days",0.0792 ± 0.0230
same,HC50 (X ± SD),serum hemolysinogenesis; [5],22.45 ± 4.12
same,HC50 (X ± SD),serum hemolysinogenesis; [6],24.01 ± 3.87
same,HC50 (X ± SD),"serum hemolysinogenesis; normal mouse, Sample 0.4 g/kg i.g.",32.08 ± 5.06
same,effects on serum hemolysinogenesis,serum hemolysinogenesis; normal or immune-compromised mouse,no obvious effects
same,Indices of pancreas,[2]; [5],2.459 ± 0.799^ mg/10 g avoirdupois
same,Indices of thymus,[2]; [5],2.448 ± 0.603^a mg/10 g avoirdupois
same,Indices of pancreas,[2]; [6],3.506 ± 1.223^ mg/10 g avoirdupois
same,Indices of thymus,[2]; [6],3.307 ± 0.721^a mg/10 g avoirdupois
same,indices of immune organs after combined administration,"[2]; mice treated by CTX, combined with Sample",these indices increased
same,effect on the indices of immune organs,"[2]; normal mice, thymus and pancreas (P1,3>0.05)",no significant effect
same,Indices of pancreas,[2]; [7],4.541 ± 0.508^a mg/10 g avoirdupois
same,Indices of thymus,[2]; [7],3.617 ± 1.334^a mg/10 g avoirdupois
same,Inhibition Rate,mouse sarcoma S180; Sample 100 mg/kg i.g. daily for 11 days,36.36%
same,Tumor Weight (X ± SD),"mouse sarcoma S180; Sample 100 mg/kg i.g. daily for 11 days, 12th day",0.70 ± 0.12^b g
same,Inhibition Rate,mouse sarcoma S180; Sample 200 mg/kg i.g. daily for 11 days,62.73%
same,Tumor Weight (X ± SD),"mouse sarcoma S180; Sample 200 mg/kg i.g. daily for 11 days, 12th day",0.41 ± 0.10^b g
same,Inhibition Rate,mouse sarcoma S180; Sample 400 mg/kg i.g. daily for 11 days,70.00%
same,Tumor Weight (X ± SD),"mouse sarcoma S180; Sample 400 mg/kg i.g. daily for 11 days, 12th day",0.33 ± 0.10^b g
"O=P1(N(CCCl)CCCl)NCCCO1 (centres unmarked) [CTX, cytoxan, reference compound]","K (X ± SD), serum clearance index of carbon grain",[1]; CTX 25 mg/kg i.g. on day 1 and 6 alone,0.0260 ± 0.0116
same,HC50 (X ± SD),serum hemolysinogenesis; CTX 25 mg/kg i.g. alone,21.83 ± 4.29
same,Indices of pancreas,[2]; CTX 25 mg/kg i.g. alone,2.154 ± 1.189^ mg/10 g avoirdupois
same,Indices of thymus,[2]; CTX 25 mg/kg i.g. alone,1.296 ± 0.665^ mg/10 g avoirdupois
same,Inhibition Rate,mouse sarcoma S180; CTX 25 mg/kg i.g. single dose on day 1,71.82%
same,Tumor Weight (X ± SD),"mouse sarcoma S180; CTX 25 mg/kg i.g. single dose on day 1, 12th day",0.31 ± 0.11^b g
same,Body Weight after treatment (X ± SD),"mouse sarcoma S180; S180 mice, CTX 25 mg/kg i.g. single dose on day 1",25.6 ± 1.6 g
"CCC(C)CCCCCCCC/C=C/C(=O)O (centres unmarked) [Compound 1, 12-Methyl-2-tetradecenoic acid]",effect on focus of oral adnoma and tongue cancer,[3],"the focus reduced, swelling disappeared"
same,anti-inflammation function compared to common anti-inflammatory cream,[4],better anti-inflammation function
same,healing of ulcerous wound,[4],the ulcerous wound healed quickly
